In US12285034B2, “Human and non-human animal use of microbial anaplerotic oil” (HELIAE DEVELOPMENT, LLC, priority 2017, dated 2025):

Key:
[1] = system: Aurantiochytrium acetophilum HS399; test: Alternative promoters of OCFA production (Example 17); conditions: for capacity to induce the production of OCFAs: flask cultures
Description: Further, it may be beneficial to find alternative promotors to produce OCFA that are less toxic to the model organisms or that are simpler. In this implementation, pentanoate, heptanoate, yeast extract, proteose peptone, methionine, valine and isoleucine are evaluated for their capacity to induce the production of OCFAs. Erlenmeyer flasks can be used and A. acetophilum HS399 can be cultured following the protocols described herein.
In this implementation, respective flasks can be supplemented with different concentrations of the proposed promoters and the resulting biomass harvested and analyzed for total lipid and fatty acid analyses.

[2] = system: Aurantiochytrium acetophilum HS399; format: cell-based; conditions: acetic acid titrant (control), pH 7
Description: In this implementation, initially (24 h incubation), the culture pH may not be controlled, and the pH of the respective treatments can drift from 7.5 to 8. After 24 h incubation, the desired pH set point of each treatment can be set using the respective organic acids. […] The cultures are aerated at 1.4 vvm and maintained at 27° C. under axenic conditions. […] This medium also contains a trace element solution (5 ml/L) and a vitamin solution (1 ml/L). The trace element solution can contain (g/L): […] […] Residual glucose is analyzed from culture supernatant (5000 g; 5 min) using a colorimetric method based on glucose […] activity. Residual acetate and propionate are analyzed by HPLC using external standard.

[3] = system: Aurantiochytrium acetophilum HS399; test: Cyanocobalamin and propionate deposition, flask (Example 10); format: cell-based
[4] = system: Aurantiochytrium acetophilum HS399; test: Cyanocobalamin impact on propionate metabolism (Example 21); format: cell-based
Description: Aurantiochytrium acetophilum HS399 was cultivated in the presence and absence of cyanocobalamin. […] The trace element solution contained (g/L): […] The vitamin solution contained (mg/L): thiamine (100) and biotin (0.5). All culture materials were autoclaved (121° C., 15 min) and media was filter sterilized before use. […] Biomass for lipid analysis was centrifuged and washed using purified water. The washed biomass was freeze dried. […] As described above, OCFAs anaplerosis can merely take place in the presence of cyanocobalamin. In this implementation, the cell dry weight and residual propionate can be monitored, and residual glucose in the media can be analyzed.

[5] = system: Aurantiochytrium acetophilum HS399; test: Cyanocobalamin impact on glucose metabolism (Examples 16, 20); format: cell-based; conditions: cyanocobalamin 0.37 μM vs 0, propionic acid 3 and 9 g/L
Description: As described above, OCFAs anaplerosis can merely take place in the presence of cyanocobalamin. In this implementation, the cell dry weight and residual propionate can be monitored, and residual glucose in the media can be analyzed.
Aurantiochytrium acetophilum HS399 was cultivated in the presence and absence of cyanocobalamin. […] The vitamin solution contained (mg/L): thiamine (100) and biotin (0.5). All culture materials were autoclaved (121° C., 15 min) and media was filter sterilized before use. […] Biomass for lipid analysis was centrifuged and washed using purified water. The washed biomass was freeze dried.
As described above, OCFAs anaplerosis can merely take place in the presence of cyanocobalamin. In this implementation, the cell dry weight and residual propionate can be monitored, and residual glucose in the media can be analyzed. […] Cell dry weight reached the same titers independently of the cyanocobalamin concentration.

[6] = system: Yarrowia lipolytica ATCC18944; format: cell-based; conditions: 192 h, itaconic acid 0.5 / propionate 6 g/L
Description: Culture conditions. In one implementation, Yarrowia lipolytica ATCC18944 can be cultivated in triplicates (n=3) in a medium containing (g/L): glycerol (80), monosodium […]), yeast extract (1), NaCl (12.5), MgSO4 (7), H2O (2.5), KCl (0.5), CaCl2 (0.1), KH2PO4 (0.5), trace metal solution (5 mL) and vitamin solution (1 mL). The trace element solution may contain (g/L): […] The vitamin solution can be filter-sterilized (e.g., using 0.2 μm pore size filter) containing (mg L-1): thiamine (100), biotin (0.5) and cyanocobalamin (0.5) unless otherwise stated. In some implementations cyanocobalamin might be added to or subtracted from the medium formulation to change or impact propionic acid deposition in OCFA. […] In one implementation, a concentration of the cyanocobalamin and/or cobalt in the culture medium can be below 0.4 μM. […] The flasks can be incubated in the dark in an orbital shaker at 180 rpm, 27° C. In this implementation, sodium propionate is fed batch every day according to respective treatments. […] Analyses. Cell dry weights can be obtained by drying samples that are previously vacuum filtrated (e.g., using 0.2 μm pore size filters). Residual propionate is analyzed directly by high performance liquid chromatography (HPLC). Lipids and total fatty acids are analyzed using a direct extraction, transesterification followed by gas chromatography (GC) and detection by flame ionization (FID). The different fatty acids are identified and quantified using appropriate internal and external standards. Propionic acid deposition rate.

[7] = cyanocobalamin 370 nM vs 0, propionic acid 16 g/L

Compound: CC[C@H](C)[C@H](N)C(=O)O [isoleucine]
- capacity to induce the production of OCFAs [1]: identified as a nitrogen and OCFAs source

Compound: CC(C)[C@H](N)C(=O)O [valine]
- capacity to induce the production of OCFAs [1]: identified as a nitrogen and OCFAs source

Compound: CC(=O)O [Acetic acid, acetic acid, reference compound]
- Total Fatty Acid [2]: 71.9 ± 5.2 % CDW
- Total Lipids [2]: 89.5 ± 0.5 % CDW

Compound: CSCC[C@H](N)C(=O)O [methionine, reference compound]
- effect of supplementation on growth ([3]; 0.5 g/L, with or without cyanocobalamin 0.00037 μM): does not appear to have an impact in growth

Compound: cyanocobalamin
- effect on cell dry weight [4, 7]: positive difference in cell dry weight
- glucose uptake rate [4, 7]: significantly (P<0.01 t-student) lower
- residual propionate in cultures deficient in cyanocobalamin ([4]; propionic acid 16 g/L, FIG. 58): chronical higher residual propionate
- effect of cyanocobalamin deprived media on growth ([3]; over 10 generations): substantially no impact on growth
- glucose uptake rate [5]: significantly (P<0.01 t-student) lower
- growth in the first 48 hrs [5]: may not be impacted

Compound: CCCCCCC(=O)O [heptanoate, heptanoic acid]
- toxicity (growth inhibition) ([1]; FIG. 53): higher than that of propionic acid

Compound: C=C(CC(=O)O)C(=O)O [Itaconic acid, itaconic acid, reference compound]
- Cell dry weight [6]: 7.9 ± 1.1 g/L
- Consumed propionate [6]: 5.0 ± 1.6 g/L
- Odd chain fatty acids [6]: 1.1 ± 0.6 % DW
- Propionic acid deposition [6]: 0.5 ± 0.2%
